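Method: 48-hour compound exposure of cells in 96-well plates, five concentrations, linear interpolation of endpoints. At the GI50, growth is halved.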 Calls of active or inactive are those of the source. Cut-off read from the data, not from the text of the source: active = GI50 up to about 1.1 µM and inactive = higher.
Experiments:
Assay in all cases: NCI anticancer screen, dose series, 48 h
DU-145 = system: DU-145
HL-60 = system: HL-60
IGROV-1 = system: IGROV-1
RPMI-8226 = system: RPMI-8226
Malme-3M = system: Malme-3M
COLO 205 = system: COLO 205
MDA-MB-435 = system: MDA-MB-435
SF-295 = system: SF-295
RXF 393 = system: RXF 393
SR = system: SR
TK-10 = system: TK-10
SK-MEL-5 = system: SK-MEL-5
SNB-19 = system: SNB-19
SF-539 = system: SF-539
OVCAR-4 = system: OVCAR-4
NCI/ADR-RES = system: NCI/ADR-RES
SNB-75 = system: SNB-75
HOP-62 = system: HOP-62
U-251 = system: U-251
KM12 = system: KM12

Structure (SMILES) | GI50 (DU-145) | GI50 (HL-60) | GI50 (IGROV-1) | GI50 (RPMI-8226) | GI50 (Malme-3M) | GI50 (COLO 205) | GI50 (MDA-MB-435) | GI50 (SF-295) | GI50 (RXF 393) | GI50 (SR) | GI50 (TK-10) | GI50 (SK-MEL-5) | GI50 (SNB-19) | GI50 (SF-539) | GI50 (OVCAR-4) | GI50 (NCI/ADR-RES) | GI50 (SNB-75) | GI50 (HOP-62) | GI50 (U-251) | GI50 (KM12)
Nc1nc(O)c(N)c(NCCOCP(=O)(O)O)n1 | > 100 µM (inactive) | > 84.1 µM (inactive) | > 100 µM (inactive) | > 100 µM (inactive) | > 100 µM (inactive) | > 100 µM (inactive) | > 100 µM (inactive) | > 100 µM (inactive) | > 100 µM (inactive) | > 100 µM (inactive) | > 100 µM (inactive) | > 100 µM (inactive) | > 100 µM (inactive) | > 100 µM (inactive) | > 100 µM (inactive) | > 100 µM (inactive) | > 65.6 µM (inactive) | > 100 µM (inactive) | > 100 µM (inactive) | 
COc1cccc2c3cccc(OC)c3c3[nH]cnc3c12 | 1.31 µM (inactive) | 0.785 µM (active) | 1.76 µM (inactive) | 2.53 µM (inactive) | 3.88 µM (inactive) | 16.5 µM (inactive) | 2.06 µM (inactive) | 4.78 µM (inactive) | 1.78 µM (inactive) | 2.16 µM (inactive) | 1.65 µM (inactive) |  | 5.01 µM (inactive) | 1.32 µM (inactive) | 5.45 µM (inactive) | 3.09 µM (inactive) | 4.3 µM (inactive) | 16.4 µM (inactive) | 1.67 µM (inactive) | 2.02 µM (inactive)
O=C(Oc1ccc(OC(Oc2ccccc2)c2ccccc2)cc1)c1ccccc1 (stereo not drawn) | > 31.6 µM (inactive) | 16.3 µM (inactive) | 15.2 µM (inactive) | 13.2 µM (inactive) | 13.2 µM (inactive) | > 31.6 µM (inactive) | 24.6 µM (inactive) | 14.7 µM (inactive) | > 92.3 µM (inactive) | 19.1 µM (inactive) | 31.3 µM (inactive) | 22.1 µM (inactive) | > 31.6 µM (inactive) |  | 15 µM (inactive) | 27.9 µM (inactive) | 27.5 µM (inactive) | 13.9 µM (inactive) | > 75.7 µM (inactive) | 18.7 µM (inactive)
C=CCC1(OCc2ccccc2)C(=O)C(=O)OC1C1COC(C)(C)O1 (stereo not drawn) | > 100 µM (inactive) | > 100 µM (inactive) |  | > 100 µM (inactive) | > 100 µM (inactive) | > 100 µM (inactive) | > 100 µM (inactive) | > 100 µM (inactive) | > 100 µM (inactive) | > 100 µM (inactive) | > 100 µM (inactive) | > 100 µM (inactive) | > 100 µM (inactive) | > 100 µM (inactive) | > 100 µM (inactive) | > 100 µM (inactive) | > 100 µM (inactive) | > 100 µM (inactive) | > 100 µM (inactive) | > 100 µM (inactive)
COC(=O)c1sc2c(=O)c(C(=O)OC)c(C(=O)OC)sc2c(=O)c1C(=O)OC | > 100 µM (inactive) |  | > 67.8 µM (inactive) | > 100 µM (inactive) | 49 µM (inactive) | > 100 µM (inactive) | > 100 µM (inactive) | > 100 µM (inactive) | > 100 µM (inactive) | 37.8 µM (inactive) | > 100 µM (inactive) | > 76 µM (inactive) | > 100 µM (inactive) | > 100 µM (inactive) | > 100 µM (inactive) | > 100 µM (inactive) | > 100 µM (inactive) | > 100 µM (inactive) | > 80.9 µM (inactive) | > 100 µM (inactive)
COc1cc2c(cc1OCCCCCOc1cc3c(cc1OC)C(=O)N1CCC[C@H]1CN3)N=C[C@@H]1CCCN1C2=O | 11.1 µM (inactive) | 4.3 µM (inactive) | 3.33 µM (inactive) |  | 5.93 µM (inactive) | 4.37 µM (inactive) | 6.85 µM (inactive) | 6.14 µM (inactive) | 17 µM (inactive) | 0.249 µM (active) | 19.5 µM (inactive) | 2.79 µM (inactive) | 20 µM (inactive) | 3.18 µM (inactive) | 25.6 µM (inactive) | 23.4 µM (inactive) | 15 µM (inactive) | 2.15 µM (inactive) | 1.49 µM (inactive) | 2.92 µM (inactive)
COC1C(O)C(O[C@H]2CC[C@@]3(C)C(CC[C@@H]4[C@@H]3CC[C@]3(C)[C@@H](C(C)OC5OC(CO)C(O)C(O)C5O)CC[C@]43O)C2)OC(C)C1OC1OC(CO)C(O)C(O)C1O (stereo partly drawn) | > 100 µM (inactive) |  | > 100 µM (inactive) | > 100 µM (inactive) | > 100 µM (inactive) | > 100 µM (inactive) | > 100 µM (inactive) | > 100 µM (inactive) | > 100 µM (inactive) | > 100 µM (inactive) | > 100 µM (inactive) | > 100 µM (inactive) | > 100 µM (inactive) | > 100 µM (inactive) | > 100 µM (inactive) | > 100 µM (inactive) | > 100 µM (inactive) | > 100 µM (inactive) | > 100 µM (inactive) | > 100 µM (inactive)
O=C1CSC2(CC(/C=C/c3cccs3)=NN2c2cccc(S(=O)(=O)O)c2)N1c1nc2ccccc2s1 (stereo not drawn) | > 100 µM (inactive) | > 100 µM (inactive) | 27.4 µM (inactive) | 31.1 µM (inactive) | > 100 µM (inactive) | > 100 µM (inactive) | 72.4 µM (inactive) |  | > 100 µM (inactive) | 30.2 µM (inactive) | 62.1 µM (inactive) | > 100 µM (inactive) | > 100 µM (inactive) | > 100 µM (inactive) | > 100 µM (inactive) | > 100 µM (inactive) | > 100 µM (inactive) |  | 65.6 µM (inactive) | > 100 µM (inactive)
Nc1ncn2c(n1)nc1ccccc12 | > 100 µM (inactive) | > 100 µM (inactive) | > 100 µM (inactive) | > 100 µM (inactive) | > 100 µM (inactive) | > 100 µM (inactive) | > 100 µM (inactive) | > 100 µM (inactive) | 18.6 µM (inactive) | > 100 µM (inactive) | > 100 µM (inactive) | > 100 µM (inactive) | > 100 µM (inactive) | > 100 µM (inactive) | > 100 µM (inactive) | > 100 µM (inactive) | 3.51 µM (inactive) |  | > 100 µM (inactive) | > 100 µM (inactive)
Cc1ccc(C(=O)C2=CN=C3C(=O)N(c4ccccc4)N(C)C3(C)C2=N)cc1 (stereo not drawn) | > 100 µM (inactive) | > 100 µM (inactive) | > 100 µM (inactive) | > 100 µM (inactive) | > 100 µM (inactive) | > 100 µM (inactive) | > 100 µM (inactive) | > 100 µM (inactive) | > 100 µM (inactive) | > 100 µM (inactive) | > 100 µM (inactive) | > 100 µM (inactive) |  | > 100 µM (inactive) | > 100 µM (inactive) | > 100 µM (inactive) | > 100 µM (inactive) |  | > 100 µM (inactive) | > 100 µM (inactive)
O=c1[nH]c(-c2ccccc2)nc2c1sc1nc3ccccc3n12 | > 100 µM (inactive) | > 100 µM (inactive) | > 100 µM (inactive) | 1.52 µM (inactive) | > 100 µM (inactive) | > 100 µM (inactive) | > 100 µM (inactive) | > 100 µM (inactive) | > 100 µM (inactive) | > 100 µM (inactive) | > 100 µM (inactive) | > 100 µM (inactive) | 98.4 µM (inactive) | > 100 µM (inactive) | > 81.3 µM (inactive) | > 100 µM (inactive) | > 63.1 µM (inactive) |  | > 87.7 µM (inactive) | > 92.7 µM (inactive)
CNc1ncc(-c2nnnn2-c2ccccc2)c(CN(C)C)n1 | > 100 µM (inactive) | > 100 µM (inactive) | > 100 µM (inactive) | > 100 µM (inactive) | > 100 µM (inactive) | > 100 µM (inactive) | > 100 µM (inactive) | > 100 µM (inactive) | > 100 µM (inactive) | > 100 µM (inactive) | > 100 µM (inactive) | > 100 µM (inactive) | > 100 µM (inactive) | > 100 µM (inactive) |  | > 100 µM (inactive) | > 100 µM (inactive) | > 100 µM (inactive) | > 100 µM (inactive) | > 100 µM (inactive)
COc1ccc(-c2cc(-c3ccc(Nc4ccnc5cc(C(F)(F)F)ccc45)cc3)[nH]c(=O)c2C#N)cc1 | > 84.7 µM (inactive) | > 100 µM (inactive) | > 81.5 µM (inactive) | > 100 µM (inactive) | > 100 µM (inactive) | > 39.4 µM (inactive) | 39.6 µM (inactive) | > 32.7 µM (inactive) | > 32.7 µM (inactive) | 9.51 µM (inactive) | > 43.6 µM (inactive) | 99.8 µM (inactive) | 16.4 µM (inactive) | 21 µM (inactive) | > 100 µM (inactive) | > 100 µM (inactive) | 8.24 µM (inactive) |  | 9.57 µM (inactive) | > 100 µM (inactive)
Cn1c(N)c(Cc2ccc(Cl)cc2)c(=O)[nH]c1=O | > 100 µM (inactive) | > 100 µM (inactive) | > 100 µM (inactive) | > 100 µM (inactive) | > 100 µM (inactive) | > 100 µM (inactive) | > 100 µM (inactive) | > 100 µM (inactive) | > 100 µM (inactive) | > 100 µM (inactive) | > 100 µM (inactive) | > 100 µM (inactive) | > 100 µM (inactive) | > 100 µM (inactive) |  | > 100 µM (inactive) | 62.8 µM (inactive) | > 100 µM (inactive) |  | > 100 µM (inactive)

Reference: ChEMBL document CHEMBL1201862, “PubChem BioAssay data set” (2004)
